Here are results for one compound from patent US20150079206A1, “TRIGONELLINE AS A MUSCLE STIMULANT” (DSM IP ASSETS B.V., priority 2009, published 2015).

This assay has as its system Female C57B1/6 mice. In words: Maximal endurance test (treadmill) in non-trained animals. The assay is classed as in vivo, mouse. The method, then:
To test the effect of trigonelline in non-trained animals, we performed a maximal endurance test after a treatment period of three weeks.
Female C57B1/6 mice were delivered at a weight of 18-20 g and acclimatized to the facilities for a period of one week. At the beginning of the study the animals were randomized into two groups (10 animals per group). All mice were housed separately and had access to feed and water ad libidum. Animals were treated for three weeks by gavage with trigonelline-hydrochloride at a daily dosage of 300 mg/kg/BW and the control group received vehicle.
For acclimatization, animals were placed on the treadmill for 5 minutes after two weeks. The maximal endurance test was performed two day before the section of the animals.

Each structure is given as a SMILES string.

On to `C[n+]1cccc(C(=O)[O-])c1` [Trigonelline, trigonelline monohydrate], for which the “skeletal muscle mass in untrained mice (in words)” value (3 weeks of supplementation) is reported as “no effect”. Moreover, the “endurance of untrained animals (in words)” value (3 weeks of supplementation, monohydrate) was “not influenced”. For the same compound, the “wet weight of the gastrocnemius muscle, treated vs control (in words)” value (untrained mice, three weeks of supplementation, FIG. 4) is “equal in both groups”.
